Active and inactive are the calls of the source. The rule behind the calls is not given here.
What was measured:
Sf9 [1] = assay: Cytotoxicity against Spodoptera frugiperda (fall armyworm) Sf9 cells at 1 to 10 uM after 72 hr by trypan blue dye exclusion test; assay type: functional, cell-based
Sf9 [2] = assay: Cytotoxicity against Spodoptera frugiperda (fall armyworm) Sf9 cells at 0.1 to 10 uM after 72 hr by trypan blue dye exclusion test; assay type: functional, cell-based
Sf9 [3] = assay: Cytotoxicity against Spodoptera frugiperda (fall armyworm) Sf9 cells at 10 uM after 72 hr by trypan blue dye exclusion test; assay type: functional, cell-based
Spodoptera litura [4] = assay: Insecticidal activity against Spodoptera litura assessed as mortality at 500 mg/L after 6 days; assay type: functional; conditions: 144 h
Sf9 [5] = assay: Cytotoxicity against Spodoptera frugiperda (fall armyworm) Sf9 cells assessed as formation of granular structures at 1 to 10 uM after 72 hr by microscopic analysis; assay type: functional, cell-based
Spodoptera litura [6] = assay: Inhibition of mitochondrial respiration in Spodoptera litura mitochondria assessed as oxygen consumption at 20 uM at 3:1 minute after addition of 0.2 mM of rotenone and 0.1 mM of succinate (reference value: 0.5%); assay type: functional; set-up: scale not given: the % may be the effect or the level left
Sf9 [7] = assay: Cytotoxicity against Spodoptera frugiperda (fall armyworm) Sf9 cells at 0.01 to 10 uM after 72 hr by trypan blue dye exclusion test; assay type: functional, cell-based
Spodoptera litura [8] = assay: Inhibition of mitochondrial respiration in Spodoptera litura mitochondria assessed as oxygen consumption at 20 uM at 1:1 minute after addition of 0.1 mM of ADP (reference value: 12.2%); assay type: functional; set-up: scale not given: the % may be the effect or the level left
Spodoptera litura [9] = assay: Inhibition of mitochondrial respiration in Spodoptera litura mitochondria assessed as oxygen consumption at 20 uM at 2:1 minute after addition of 0.1 mM of ADP (reference value: 54.4%); assay type: functional; set-up: scale not given: the % may be the effect or the level left
Sf9 [10] = assay: Induction of cell growth in Spodoptera frugiperda (fall armyworm) Sf9 cells at 10 uM after 72 hr by trypan blue dye exclusion test; assay type: functional, cell-based
Sf9 [11] = assay: Cytotoxicity against Spodoptera frugiperda (fall armyworm) Sf9 cells at 5 uM after 72 hr by trypan blue dye exclusion test; assay type: functional, cell-based
Sf9 [12] = assay: Cytotoxicity against Spodoptera frugiperda (fall armyworm) Sf9 cells at 0.1 to 1 uM after 72 hr by trypan blue dye exclusion test; assay type: functional, cell-based

| Structure (SMILES) | Activity (Sf9 [3]) | mortality at 500 µg/mL (Spodoptera litura [4]) | further results |
| --- | --- | --- | --- |
| C=C(C)[C@H]1Cc2c(ccc3c2O[C@@H]2COc4cc(OC)c(OC)cc4[C@@H]2C3=O)O1 |  |  | Activity (Sf9 [1]): Active |
| CCOCn1c(-c2ccc(Cl)cc2)c(C#N)c(Br)c1C(F)(F)F |  |  | Activity (Sf9 [2]): Active |
| O=[N+]([O-])c1ccc(O)c([N+](=O)[O-])c1 | Active |  |  |
| CC(COc1cc(Cl)c(OCCCOc2ccc(Cl)cc2)c(Cl)c1)=C(Cl)Cl | inactive | 0% |  |
| COc1ccc(C[C@H]2NC[C@H](O)[C@H]2OC(C)=O)cc1 | Active |  |  |
| ClC(Cl)=C(Cl)COc1cc(Cl)c(OCCCOc2ccc(Cl)cc2)c(Cl)c1 | inactive | 0% |  |
| FC(F)(F)c1ccc(OCCCOc2c(Cl)cc(OCC=C(Cl)Cl)cc2Cl)nc1 [PYRIDALYL] |  | 100% | Activity (Sf9 [5]): Active; Activity (Spodoptera litura [6]): 0.5%; Activity (Sf9 [7]): Active; Activity (Spodoptera litura [8]): 12.2%; Activity (Spodoptera litura [9]): 53.3% |
| CC1(C)C(C=C(Cl)Cl)C1C(=O)OC(C#N)c1cccc(Oc2ccccc2)c1 (stereo unspecified) |  |  | Activity (Sf9 [10]): Active |
| ClC(Cl)=CCOc1cc(Cl)c(OCCCOc2ccc(Cl)cc2)c(Cl)c1 | Active | 100% |  |
| CNC(=O)ON=C(C)SC |  |  | Activity (Sf9 [10]): Active |
| CC[C@H]1/C=C/C=C/C[C@@H](C)[C@H](O)[C@@](C)(O)C(=O)[C@@H](C)[C@H](O)[C@@H](C)C(=O)[C@@H](C)[C@H](O)[C@@H](C)/C=C/C(=O)O[C@@H]2[C@H](C)[C@H](CC1)O[C@]1(CC[C@H](C)[C@H](C[C@@H](C)O)O1)[C@H]2C |  |  | Activity (Sf9 [1]): Active |
| FC(F)(F)c1ccc(OCCCOc2ccc(OCC=C(Cl)Cl)cc2)nc1 | inactive | 0% |  |
| COP(=O)(NC(C)=O)SC (stereo unspecified) |  |  | Activity (Sf9 [10]): Active |
| FC(F)(F)c1ccc(OCCCOc2c(Cl)cc(OC/C(Cl)=C/Cl)cc2Cl)nc1 | inactive | 0% |  |
| C[C@@]1(CO)[C@H](O)CC[C@@]2(C)[C@H]1CC[C@H]1C[C@@H]3C[C@@]12CC[C@]3(O)CO |  |  | Activity (Sf9 [11]): inactive |
| O=c1[nH]cc(F)c(=O)[nH]1 |  |  | Activity (Sf9 [12]): Active |
